Experiments:
Half-life in plasma = details: unit inferred, unit assumed
Half-life in liver = format: in vitro ADME; details: unit inferred, unit assumed
cathepsin B = molecular target: T1, cathepsin B (Homo sapiens, UniProt P07858); experiment: Cathepsin B inhibition; format: biochemical
T1 construct: purchased Sigma
Description: (§1) HEPES, heparin, and A23187 were obtained from Calbiochem. Suc--Leu--Tyr--AMC and chromogenic substrates were obtained from Sigma Calpain I was purified from human erythrocytes according to the method of Kitahara (Kitahara et al., J. Biochem. 95, 1759-1766) omitting the Blue-Sepharose step. Calpain II from rabbit muscle and cathepsin B were purchased from Sigma. Papain was purchased from Calbiochem.
(§2) Peptide α-ketoamides were assayed as reversible enzyme inhibitors. Various concentrations of inhibitors in Me2 SO were added to the assay mixture which contained buffer and substrate. The reaction was started by the addition of the enzyme and the hydrolysis rates were followed spectrophotometrically or fluorimetrically.
(§3) Calpain I from human erythrocytes and calpain II from rabbit were assayed using Suc-Leu-Tyr-AMC [Sasaki et al., J. Biol. Chem. 259, 12489-12494 (1984); incorporated herein by reference], and the AMC (7-amino-4-methylcoumarin) release was followed fluorimetrically (excitation at 380 nm, and emmision at 460 nm). Calpains were assayed in 25 mM Tris pH=8.0, 10 mM CaCl2. Fluorescence was followed using a Gilson FL-1A fluorometer or a Perkin-Elmer 203 Fluorescence spectrometer. […] Enzymatic hydrolysis rates were measured at various substrate and inhibitor concentrations, and KI values were determined by either Lineweaver-Burk plots or Dixon plots. […]

[1] = molecular target: T2, Calpain I from human erythrocytes (Homo sapiens, UniProt P07384); experiment: Calpain I inhibition, Suc-Leu-Tyr-AMC hydrolysis; format: biochemical; details: ratio of KI values
T2 construct: Calpain I was purified from human erythrocytes; from tissue; host or cells: human erythrocytes
T2 sequence (P07384 1-714): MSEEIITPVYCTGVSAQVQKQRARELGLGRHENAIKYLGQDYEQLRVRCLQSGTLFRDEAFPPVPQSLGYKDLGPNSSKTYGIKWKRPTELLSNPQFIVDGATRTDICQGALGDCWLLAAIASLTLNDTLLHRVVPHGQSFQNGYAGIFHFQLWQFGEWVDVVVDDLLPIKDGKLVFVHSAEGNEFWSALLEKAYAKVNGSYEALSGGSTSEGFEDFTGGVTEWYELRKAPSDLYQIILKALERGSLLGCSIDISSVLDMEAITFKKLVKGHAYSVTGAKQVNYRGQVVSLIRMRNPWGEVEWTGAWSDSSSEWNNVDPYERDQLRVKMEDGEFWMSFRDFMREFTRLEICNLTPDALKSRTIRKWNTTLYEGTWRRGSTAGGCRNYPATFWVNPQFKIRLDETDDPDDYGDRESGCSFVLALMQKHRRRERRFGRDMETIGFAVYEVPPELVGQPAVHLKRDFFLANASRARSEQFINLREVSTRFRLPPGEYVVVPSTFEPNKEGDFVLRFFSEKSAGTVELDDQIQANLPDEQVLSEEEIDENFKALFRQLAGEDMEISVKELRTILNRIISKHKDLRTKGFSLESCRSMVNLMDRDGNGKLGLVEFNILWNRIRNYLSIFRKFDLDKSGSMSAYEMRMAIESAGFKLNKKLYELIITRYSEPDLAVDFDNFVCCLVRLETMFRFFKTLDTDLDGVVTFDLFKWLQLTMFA
T2 sequence (P04632 1-268 partner): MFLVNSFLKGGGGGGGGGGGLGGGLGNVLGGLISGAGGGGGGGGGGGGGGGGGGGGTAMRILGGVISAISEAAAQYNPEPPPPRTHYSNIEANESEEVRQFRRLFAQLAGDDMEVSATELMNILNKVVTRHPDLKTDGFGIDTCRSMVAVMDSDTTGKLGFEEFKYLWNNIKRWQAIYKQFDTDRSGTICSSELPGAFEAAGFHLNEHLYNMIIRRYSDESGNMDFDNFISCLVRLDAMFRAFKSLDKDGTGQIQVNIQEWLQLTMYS
Description: as §1, §2, §3

[2] = molecular target: Calpain II from rabbit muscle; experiment: Calpain II inhibition, Suc-Leu-Tyr-AMC hydrolysis; format: biochemical
Description: HEPES, heparin, and A23187 were obtained from Calbiochem. […] Calpain II from rabbit muscle and cathepsin B were purchased from Sigma. Papain was purchased from Calbiochem.
as §2
as §3, with “spectrometer. Cathepsin B was assayed in 20 mM sodium acetate pH=5.2, 0.5 mM dithiothreitol using Bz-Phe-Val-Arg-p-nitroanilide as substrate. Alternately, cathepsin B was assayed with Z-Arg-Arg-AFC [Barrett and Kirschke, Methods Enzymol.” for “spectrometer.”

SMILES	t1/2 plasma (Half-life in plasma) [h]	t1/2 liver (Half-life in liver) [h]	also measured
CCOC(=O)C(=O)C(CCSC)NC(=O)C(CC(C)C)NC(=O)OCc1ccccc1 (stereo not drawn) [Z-Leu-Met-COOEt]	0.133		
CCOC(=O)C(=O)[C@H](CC)NC(=O)[C@H](CC(C)C)NC(=O)OCc1ccccc1 [Z-Leu-Abu-COOEt, reference compound]	0.0467		
CCC(NC(=O)C(CC(C)C)NC(=O)OCc1ccccc1)C(=O)C(=O)O (stereo not drawn) [Z-Leu-Abu-COOH, reference compound]	> 1	> 1	
CCCCNC(=O)C(=O)C(CC)NC(=O)C(CC(C)C)NC(=O)OCc1ccccc1 (stereo not drawn) [Z-Leu-Abu-CONH-nBu, Z--Leu--Abu--CONH--nBu]	> 1	> 1	
CCOC(=O)C(=O)C(CC)NC(=O)C(CC(C)C)NC(=O)C(CC(C)C)NS(=O)(=O)c1ccc2ccccc2c1 (stereo not drawn) [2-NapSO2-Leu-Leu-Abu-COOEt, reference compound]	> 1		
CCCNC(=O)C(=O)[C@H](CC)NC(=O)[C@H](CC(C)C)NC(=O)OCc1ccccc1 [Z-Leu-Abu-CONH-nPr, Z--Leu--Abu--CONH--nPr]	> 1	> 1	
CCCCC(NC(=O)C(CC(C)C)NC(=O)OCc1ccccc1)C(=O)C(=O)OCC (stereo not drawn) [Z-Leu-Nle-COOEt, reference compound]	0.0617		
CCOC(=O)C(=O)[C@H](CC)NC(=O)[C@H](CC(C)C)NC(=O)[C@H](CC(C)C)NC(=O)c1ccc2ccccc2c1 [2-NapCO-Leu-Leu-Abu-COOEt]	0.417		
CCCC(NC(=O)C(CC(C)C)NC(=O)OCc1ccccc1)C(=O)C(=O)OCC (stereo not drawn) [Z-Leu-Nva-COOEt, reference compound]	0.0467		
CC[C@H](NC(=O)[C@H](CC(C)C)NC(=O)OCc1ccccc1)C(=O)C(=O)NCCc1ccccc1 [Z-Leu-Abu-CONH--(CH2)2 -Ph, Z--Leu--Abu--CONH--(CH2)2 Ph]			KI Calpain II [2]: best inhibitor

Continued, in another order:

t1/2 plasma (Half-life in plasma) [h]	t1/2 liver (Half-life in liver) [h]	SMILES	also measured
> 1		CC(C)CNC(=O)C(=O)[C@H](Cc1ccccc1)NC(=O)[C@H](CC(C)C)NC(=O)OCc1ccccc1 [Z-Leu-Phe-CONH-iBu, Z--Leu--Phe--CONH--iBu]	
0.128		CCCCOC(=O)C(=O)[C@H](Cc1ccccc1)NC(=O)[C@H](CC(C)C)NC(=O)OCc1ccccc1 [Z-Leu-Phe-COOnBu]	
> 1	> 1	CCCNC(=O)C(=O)C(Cc1ccccc1)NC(=O)C(CC(C)C)NC(=O)OCc1ccccc1 (stereo not drawn) [Z-Leu-Phe-CONH-nPr, Z--Leu--Phe--CONH--nPr]	
0.13		CCOC(=O)C(=O)C(Cc1ccccc1)NC(=O)C(CC(C)C)NC(=O)OCc1ccccc1 (stereo not drawn) [Z-Leu-Phe-COOEt, Z--Leu--Phe--COOEt, reference compound]	
> 1	> 1	CCC(NC(=O)C(CC(C)C)NC(=O)OCc1ccccc1)C(=O)C(=O)NCc1ccccc1 (stereo not drawn) [Z-Leu-Abu-CONH-Bzl, Z--Leu--Abu--CONH--Bzl]	
> 1	> 1	CCNC(=O)C(=O)[C@H](Cc1ccccc1)NC(=O)[C@H](CC(C)C)NC(=O)OCc1ccccc1 [Z-Leu-Phe-CONH-Et, Z--Leu--Phe--CONH--Et]	
> 1	> 1	CC(C)CC(NC(=O)OCc1ccccc1)C(=O)NC(Cc1ccccc1)C(=O)C(=O)O (stereo not drawn) [Z-Leu-Phe-COOH, reference compound]	
> 1		CC(C)C[C@H](NC(=O)OCc1ccccc1)C(=O)N[C@@H](Cc1ccccc1)C(=O)C(=O)NCCc1ccccc1 [Z-Leu-Phe-CONH(CH2)2 Ph, Z--Leu--Phe--CONH--(CH2)2 Ph]	
> 1		CCC(NC(=O)C(CC(C)C)NC(=O)OCc1ccccc1)C(=O)C(=O)NCC(C)C (stereo not drawn) [Z-Leu-Abu-CONH-iBu, Z--Leu--Abu--CONH--iBu]	
0.0317		CC(C)CC(NC(=O)OCc1ccccc1)C(=O)NC(Cc1ccccc1)C(=O)C(=O)OCc1ccccc1 (stereo not drawn) [Z-Leu-Phe-COOBz]	
> 1	> 1	CCNC(=O)C(=O)[C@H](CC)NC(=O)[C@H](CC(C)C)NC(=O)OCc1ccccc1 [Z-Leu-Abu-CONH-Et, Z--Leu--Abu--CONH--Et]	KI Cath B (cathepsin B): best inhibitor; fold better inhibitor of calpain I than Z--Leu--Phe--CONH--Et [1]: 14 fold
> 1	> 1	CCCCNC(=O)C(=O)C(Cc1ccccc1)NC(=O)C(CC(C)C)NC(=O)OCc1ccccc1 (stereo not drawn) [Z-Leu-Phe-CONH-nBu, Z--Leu--Phe--CONH--nBu]	
